From patent publication US10208071B2, “Use of agonists of formyl peptide receptor 2 for treating ocular inflammatory diseases” (Allergan, Inc., priority 2013, dated 2019)

Columns and labels:
FPR2 [1] = target: T1, FPR2 (Homo sapiens (Human), UniProt P25090); assay: FPR2 Ga16-CHO EC50 (efficacy), Tables 1-3; format: cell-based; conditions: for FPR2 Ga16-CHO (efficacy): efficacy in parentheses
FPR2 [2] = target: T1, FPR2; assay: FLIPR Ca+2 response, HEK-Gα16 cells stably expressing the human FPR2 receptor (Table 4); format: cell-based; conditions: for FPR2 (efficacy): efficacy in parentheses
Method in brief: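 HEK-Gα16 cells stably expressing human FPR2, loaded with 2 μM Fluo-4 in HBSS/20 mM HEPES for 40 min at 37° C., then washed. Ligands added in HBSS/Hepes and Ca+2 responses recorded on FLIPR in relative fluorescence units.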

corneal epithelial wound = assay: Alkali burn corneal wound in rabbits; format: in vivo; conditions: FIG. 3; rabbit model, b270 says mouse models; topical three times a day
From the text: Alkali burn in rabbits: Corneal epithelium plays an important role in the maintenance of corneal function and integrity. Prolonged corneal epithelial defects causes corneal opacity, neovascularization, bacterial infection and visual loss. Corneal epithelial healing is a complex process involving inflammatory response to injury, cell proliferation and migration. Animal models of corneal injury are every useful to test new anti-inflammatory and pro-wound healing therapies. New Zealand White rabbits weighing between 2.1 and 2.5 kg were anesthetized systemically with Ketamine/Xylazine (35/5 mg/kg) subcutaneously and topically with proparacaine (0.5%). The corneal epithelial wound in one eye was induced with a NaOH saturated filter paper containing 1.0 N NaOH for 30 seconds. The eyes were rinsed with sterile PBS. The corneal wound was confirmed by fluorescein staining with 10% sodium fluorescein (Science Lab Com) and slit lamp photography. Test compounds were formulated in the vehicle described above. For initial studies compounds were topically dosed three times a day. Quantification of corneal wound areas was done using Image J software where fluorescing stain green part was traced and converted to total pixel.

T1 sequence (P25090 whole entry): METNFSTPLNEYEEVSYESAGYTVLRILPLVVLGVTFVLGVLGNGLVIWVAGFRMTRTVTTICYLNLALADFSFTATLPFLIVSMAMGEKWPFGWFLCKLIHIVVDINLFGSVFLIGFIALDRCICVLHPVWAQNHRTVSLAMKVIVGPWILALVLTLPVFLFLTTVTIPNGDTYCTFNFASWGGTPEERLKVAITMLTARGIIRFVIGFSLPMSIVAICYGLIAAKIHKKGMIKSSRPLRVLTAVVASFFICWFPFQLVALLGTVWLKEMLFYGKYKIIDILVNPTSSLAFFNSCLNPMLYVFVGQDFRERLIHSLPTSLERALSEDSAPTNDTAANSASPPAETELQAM

SMILES | EC50 (FPR2 [1]) [nM] | FPR2 Ga16-CHO (efficacy) (FPR2 [1]) | FPR2 (efficacy) (FPR2 [2]) | EC50 (FPR2 [2]; unit inferred) [nM] | healing and re-epithelialization of corneal wound (corneal epithelial wound)
O=C(Nc1ccc(Cl)cc1)NN1C(=O)NC2(CCCCC2)C1=O [1-(4-chlorophenyl)-3-(2,4-dioxo-1,3-diazaspiro[4,5]decan-3-yl) urea] | 49 | nM (0.98) | – | – | –
CCC1(CC)NC(=O)N(CC(=O)Nc2ccc(F)cc2)C1=O [2-(4,4-diethyl-2,5-dioxoimidazolidin-1-yl)-N-(4-fluorophenyl)acetamide] | 2770 | nM (0.67) | – | – | –
CCC1(C)NC(=O)N(CC(=O)Nc2ccc(Br)cc2)C1=O (centres unmarked) [N-(4-bromophenyl)-2-(4-ethyl-4-methyl-2,5-dioxoimidazolidin-1-yl)acetamide] | 485 | nM (1.0) | – | – | –
O=C(Nc1ccc(Cl)c(Cl)c1)N[C@@H](Cc1ccccc1)C(=O)O [(2S)-2-({[(3,4-dichlorophenyl)amino]carbonyl}amino)-3-phenylpropanoic acid] | – | μM (0.57) | – | – | –
O=C(Nc1ccc(Br)cc1)NC(Cc1c[nH]c2ccccc12)C(=O)O (centres unmarked) [2-({[(4-bromophenyl)amino]carbonyl}amino)-3-(1H-indol-3-yl)propanoic acid] | 67 | nM (0.89) | – | – | –
CCC1(CC)NC(=O)N(CC(=O)Nc2ccc(Cl)cc2)C1=O [N-(4-chlorophenyl)-2-(4,4-diethyl-2,5-dioxoimidazolidin-1-yl)acetamide] | 314 | nM (0.79) | – | – | –
CC(C)[C@H](NC(=O)Nc1ccc(Br)cc1)C(=O)O [(2S)-2-({[(4-bromophenyl)amino]carbonyl}amino)-3-methylbutanoic acid] | 72 | nM (0.91) | – | – | –
CC1(CCc2ccccc2)NC(=O)N(NC(=O)Nc2ccccc2F)C1=O (centres unmarked) [1-(2-fluorophenyl)-3-[4-methyl-2,5-dioxo-4-(2-phenylethyl)imidazolidin-1-yl]urea] | 258 | nM (0.94) | – | – | –
O=C(Nc1ccc(Br)cc1)N[C@@H](Cc1ccccc1)C(=O)O [(2S)-2-({[(4-bromophenyl)amino]carbonyl}amino)-3-phenylpropanoic acid] | 31 | nM (1.0) | – | – | –
CCCC1(CCC)NC(=O)N(CC(=O)Nc2ccc(Br)cc2)C1=O [N-(4-bromophenyl)-2-(2,5-dioxo-4,4-dipropylimidazolidin-1-yl)acetamide] | 645 | nM (0.98) | – | – | –
COc1ccc(NC(=O)N[C@@H](Cc2ccccc2)C(=O)O)cc1 [(2S)-2-({[(4-methoxyphenyl)amino]carbonyl}amino)-3-phenylpropanoic acid] | 1750 | nM (0.90) | – | – | –
Cc1ccc(NC(=O)NN2C(=O)NC3(CCC(C)CC3)C2=O)cc1 (centres unmarked) [1-(8-methyl-2,4-dioxo-1,3-diazaspiro[4,5]decan-3-yl)-3-(p-tolypurea] | 363 | nM (0.91) | – | – | –
O=C(Nc1ccc(OC(F)(F)F)cc1)NC(Cc1ccccc1)C(=O)O (centres unmarked) [3-phenyl-2-[({[4-(trifluoromethoxy)phenyl]amino}carbonyl)amino]propanoic acid] | 1570 | nM (0.79) | – | – | –
O=C(Nc1ccc(Br)cc1)N[C@H](C(=O)O)c1ccccc1 [(2S)-({[(4-bromophenyl)amino]carbonyl}amino) (phenyl)acetic acid] | 25.8 | nM (0.94) | – | – | –
CC1(C)NC(=O)N(CC(=O)Nc2ccc(Br)cc2)C1=O [N-(4-bromophenyl)-2-(4,4-dimethyl-2,5-dioxoimidazolidin-1-yl)acetamide] | 719 | nM (0.94) | – | – | –
CC[C@H](C)[C@H](NC(=O)Nc1ccc(Br)cc1)C(=O)O [Compound 53, (2S,3S)-2-{[(4-bromophenyl)carbamoyl]amino}-3-methylpentanoic acid] | – | nM (0.89) | nM (0.9) | – | –
O=C(Nc1ccc(C(F)(F)F)cc1)N[C@@H](Cc1ccccc1)C(=O)O [(2S)-3-phenyl-2-[({[4-(trifluoromethyl)phenyl]amino}carbonyl)amino]propanoic acid] | 120 | nM (0.97) | – | – | –
O=C(Nc1ccc(Cl)cc1)NC(Cc1ccccc1)C(=O)O (centres unmarked) [2-({[(4-chlorophenyl)amino]carbonyl}amino)-3-phenylpropanoic acid] | 110 | nM (1.0) | – | – | –
CC1(CCc2ccccc2)NC(=O)N(NC(=O)Nc2ccccc2)C1=O (centres unmarked) [1-[4-methyl-2,5-dioxo-4-(2-phenylethyl)imidazolidin-1-yl]-3-phenylurea] | 223 | nM (1.0) | – | – | –
O=C(Nc1ccc([N+](=O)[O-])cc1)N[C@@H](Cc1ccccc1)C(=O)O [(2S)-2-({[(4-nitrophenyl)amino]carbonyl}amino)-3-phenylpropanoic acid] | – | nM (0.82) | – | – | –
CC[C@H](C)[C@H](NC(=O)Nc1ccc(Br)cc1)C(=O)NCC(=O)O [Compound 3, {[(2S,3S)-2-{[(4-bromophenyl)carbamoyl]amino}-3-methylpentanoyl]amino}acetic acid] | – | – | (1.0) | 1.98 | accelerated healing and re-epithelialization
